A word on the GI50: it is the concentration giving 50% growth inhibition. A lower GI50 goes with more potent growth inhibition.

The text below walks through data of patent US20100144779A1, “Marine Alkalod Makaluvamines and Derivatives Thereof” (THE UAB RESEARCH FOUNDATION, priority 2007, published 2010).

Format in all cases: cell-based, human
The test system of test [1] is p53. Description: Protein expression, Western blot in MCF-7 cells. To be noted: 1 μM, 6 h (FIG. 4A). Here is the method:
(§1) In FIG. 4A, MCF-7 cells were exposed to 1 μM concentration of the indicated compounds for 6 hours. Western blots were probed with antibodies specific for the proteins indicated. Numbers below each lane show densitometry readings for each lane as compared to control. […] Western blots were probed with antibodies specific for the proteins indicated.
(§2) To determine the disclosed compounds effect on protein expression in human breast cancer cells, cultured MCF-7 cells were exposed to various concentrations of the test compounds for 6 h (FIG. 4A) or 24 h (FIG. 4B). Cell lysates were fractionated with identical amounts of protein by SDS-PAGE and transferred to Bio-Rad trans-Blot nitrocellulose membranes (Bio-Rad Laboratories, Hercules, Calif.). The nitrocellulose membrane was incubated in blocking buffer (Tris-buffered saline containing 0.1% Tween 20 and 5% nonfat milk) for 1 h at room temperature, then with the appropriate primary antibody overnight at 4° C. or 2 h at room temperature with gentle shaking. Finally, the membrane was washed three times with the washing buffer (Tris-buffered saline containing 0.1% Tween 20) for 15 min, incubated with goat anti mouse/rabbit IgG-horseradish peroxidase-conjugated antibody (Bio-Rad) for 1 h at room temperature, and washed again (in triplicate). The protein of interest was detected by enhanced chemiluminescence reagents from PerkinElmer LAS, Inc (Boston, Mass.).
Background: Immunoblotting shows a protein as a band on a membrane.

Test [2] deals with p21. As to the kind of experiment: Protein expression, Western blot in MCF-7 cells. To be noted: 1 μM, 6 h (FIG. 4A). Here is the method:
as §1, §2

In test [3] the test system is MDM2. Description: Protein expression, Western blot in MCF-7 cells. The note with it: for expression of MDM2: 1 μM, 6 h (FIG. 4A). Here is the method: as §1, §2
Test [4] concerns A549/ATCC. As to the kind of experiment: NCI60 cell line screen (SRB). To be noted: Non-Small Cell Lung Cancer, 48 h. On the procedure: (§3) This panel implements the NCI60 cell line screen, including leukemia, non-small cell lung cancer, colon cancer, central nervous system cancer, melanoma, ovarian cancer, renal cancer, prostate cancer and breast cancer. The cell lines tested are specified in Table 3.
(§4) Generally, the human tumor cell lines of the cancer screening panel are grown in RPMI 1640 medium containing 5% fetal bovine serum and 2 mM L-glutamine. For a typical screening experiment, cells are inoculated into 96 well microtiter plates in 100 μL at plating densities ranging from 5,000 to 40,000 cells/well depending on the doubling time of individual cell lines. After cell inoculation, the microtiter plates are incubated at 37° C., 5% CO2, 95% air and 100% relative humidity for 24 h prior to addition of experimental drugs. After 24 h, two plates of each cell line are fixed in situ with TCA, to represent a measurement of the cell population for each cell line at the time of drug addition (Tz). Experimental drugs are solubilized in dimethyl sulfoxide at 400-fold the desired final maximum test concentration and stored frozen prior to use. At the time of drug addition, an aliquot of frozen concentrate is thawed and diluted to twice the desired final maximum test concentration with complete medium containing 50 μg/ml gentamicin. Additional four, 10-fold or ½ log serial dilutions are made to provide a total of five drug concentrations plus control. Aliquots of 100 μl of these different drug dilutions are added to the appropriate microtiter wells already containing 100 μl of medium, resulting in the required final drug concentrations.
(§5) Following drug addition, the plates are incubated for an additional 48 h at 37° C., 5% CO2, 95% air, and 100% relative humidity. For adherent cells, the assay is terminated by the addition of cold TCA. Cells are fixed in situ by the gentle addition of 50 μl of cold 50% (w/v) TCA (final concentration, 10% TCA) and incubated for 60 minutes at 4° C. The supernatant is discarded, and the plates are washed five times with tap water and air dried. Sulforhodamine B (SRB) solution (100 μl) at 0.4% (w/v) in 1% acetic acid is added to each well, and plates are incubated for 10 minutes at room temperature. After staining, unbound dye is removed by washing five times with 1% acetic acid and the plates are air dried. Bound stain is subsequently solubilized with 10 mM trizma base, and the absorbance is read on an automated plate reader at a wavelength of 515 nm. For suspension cells, the methodology is the same except that the assay is terminated by fixing settled cells at the bottom of the wells by gently adding 50 μl of 80% TCA (final concentration, 16% TCA). Using the seven absorbance measurements (time zero, Tz, control growth, (control), and test growth in the presence of drug at the five concentration levels (Ti)), the percentage growth is calculated at each of the drug concentrations levels. Percentage growth inhibition is calculated as:
(§6) [(Ti−Tz)/(C−Tz)]×100 for concentrations for which Ti>/=Tz
(§7) [(Ti−Tz)/Tz]×100 for concentrations for which Ti<Tz.

Test [5] relates to T-47D. Description: NCI60 cell line screen (SRB). To be noted: Breast Cancer, 48 h. Here is the method: as §3, §4, §5, §6, §7
Test [6] deals with OVCAR8. Description: NCI60 cell line screen (SRB). To be noted: OVCAR8, Ovarian Cancer, 48 h. On the procedure: as §3, §4, §5, §6, §7
The test system of test [7] is HT-29. Description: NCI60 cell line screen (SRB). To be noted: HT-29, Colon Cancer, 48 h. On the procedure:
as §3, §4, §5, §6, §7

Test [8] concerns SR. Description: NCI60 cell line screen (SRB). The note with it: Leukemia, 48 h. On the procedure: as §3, §4, §5, §6, §7
For test [9], the system named is HL-60. As to the kind of experiment: NCI60 cell line screen (SRB). To be noted: HL-60, Leukemia, 48 h. Here is the method:
as §3, §4, §5, §6, §7

For test [10], the system named is IGROV1. Description: NCI60 cell line screen (SRB). The note with it: IGROV1, Ovarian Cancer, 48 h. Here is the method:
as §3, §4, §5, §6, §7

Test [11] concerns SF-268. As to the kind of experiment: NCI60 cell line screen (SRB). To be noted: SF-268, CNS Cancer, 48 h. Here is the method:
as §3, §4, §5, §6, §7

Test [12] concerns H1299. As to the kind of experiment: Cell cycle progression (propidium iodide, flow cytometry). To be noted: 48 hr; for G1 / G2/M / S: H1299; for cell cycle arrest: lung cancer H1299, dose-dependent. On the procedure: (§8) To determination of the effects of the disclosed compounds on the cell cycle, 2-3×10^5 cells were exposed to the test compounds (0-5 μM) and incubated for 48 hr prior to analysis (Table 6). Cells were trypsinized, washed with PBS and fixed in 1.5 mL 95% ethanol at 4° C. overnight, followed by incubation with RNAse and staining with propidium iodide (Sigma). The DNA content was determined by flow cytometry.
For orientation: Flow cytometry measures light scatter and fluorescence of single cells or particles in a stream.

The subject of test [13] is A549. Described as above. The note with it: 48 hr; for G1 / G2/M / S: A549; for cell cycle arrest: lung cancer A549, dose-dependent. Here is the method: as §8

For the compound `O=C1C(NCCc2ccccc2)=CC2=NCCc3c[nH]c1c32` [Compound 4d], the “expression of p53” value in test [1] was “increased the expression”. The “expression of p21” value in [2] is recorded as “increased the expression”. For the same compound, in test [3], the “expression of MDM2” value is listed as “increased the expression”.
With `CNC1=CC2=NCCc3c[nH]c(c32)C1=O` [Compound 4a], the GI50 in test [4] is 2780 nM; in test [5], 3500 nM; in [6], 3190 nM; in test [7], 2540 nM; in [8], 3120 nM; in test [9], 2540 nM. The GI50 turned out to be 2900 nM in [10] and 2090 nM in test [11].
Regarding `O=C(O)C(F)(F)F.O=C1C(NCCc2ccc3c(c2)OCO3)=CC2=NCCc3c[nH]c1c32` [Compound 6], the GI50 in [5] (Homo sapiens, T47D) was 2970 nM; in [6] (Homo sapiens, OVCAR-8), 1620 nM; in test [7] (Homo sapiens) it was 2070 nM; in test [8] (Homo sapiens) it was 2500 nM; in test [9] (Homo sapiens) it was 1920 nM; in test [10] (Homo sapiens, IGROV-1), 2520 nM. The compound also showed a GI50 in test [11] (Homo sapiens) of 3660 nM. Besides, the “expression of p53” value in test [1] is recorded as “increased the expression”. The G1 stood at 53.99 in [12] (0.1 μM); 57.20 in test [12] (1 μM); 35.29 in [12] (5 μM); 58.66 in [13] (0.1 μM); 58.59 in test [13] (1 μM); 50.88 in test [13] (5 μM). The G2/M in test [12] (0.1 μM) turned out to be 30.73; in test [12] (1 μM), 27.57; in [12] (5 μM), 41.28; in [13] (0.1 μM), 20.85; in test [13] (1 μM), 20.37; in test [13] (5 μM), 23.36. For the same compound, the S is 15.28 in [12] (0.1 μM); 15.22 in test [12] (1 μM); 23.43 in test [12] (5 μM); 20.50 in test [13] (0.1 μM); 21.04 in test [13] (1 μM); 25.76 in [13] (5 μM). Besides, the cell cycle arrest entry in test [12] and in test [13] was “cell cycle arrest in the G2/M phase” in each case.
On to `COc1ccc(CCNC2=CC3=NCCc4c[nH]c(c43)C2=O)cc1OC.O=C(O)C(F)(F)F` [Compound 20], for which the GI50 is 2720 nM in test [4] (Homo sapiens); 2490 nM in test [5] (Homo sapiens, T47D); 1790 nM in [6] (Homo sapiens, OVCAR-8); 2540 nM in [7] (Homo sapiens); 5690 nM in test [8] (Homo sapiens); 3140 nM in test [9] (Homo sapiens). The GI50 in test [10] (Homo sapiens, IGROV-1) was 4240 nM; in [11] (Homo sapiens), less than 10 nM. For the same compound, the “expression of p53” value in test [1] was “decreased the expression”. Moreover, in test [2], the “expression of p21” value is on record as “decreased the expression”. Further, the “expression of MDM2” value in test [3] was “inhibited the expression”.
For the compound `O=C(O)C(F)(F)F.O=C1C(NCc2ccc(F)cc2)=CC2=NCCc3c[nH]c1c32` [Compound 28], the GI50 in test [4] (Homo sapiens) amounted to 1440 nM; in test [5] (Homo sapiens, T47D), 633 nM; in test [6] (Homo sapiens, OVCAR-8) it was 1970 nM; in test [7] (Homo sapiens), 596 nM; in test [8] (Homo sapiens) it was 1210 nM; in test [9] (Homo sapiens), 1530 nM. Moreover, the GI50 in test [10] (Homo sapiens, IGROV-1) stood at 1430 nM; in test [11] (Homo sapiens) it was 1660 nM. Also, the “expression of p53” value in test [1] is given as “decreased the expression”. Moreover, in [2], the “expression of p21” value is on record as “decreased the expression”. Further, the “expression of MDM2” value in test [3] is given as “inhibited the expression”. In [3] (24 h (FIG. 4B)), the “expression level of MDM2” value is “decreased”. The G1 in test [12] (0.1 μM) is 54.23; in [12] (1 μM), 46.88; in [12] (2 μM) it was 31.52; in test [13] (0.1 μM), 59.91; in [13] (1 μM) it was 57.88; in [13] (5 μM), 46.78. Moreover, the G2/M in test [12] (0.1 μM) was found to be 25.17; in test [12] (1 μM), 31.82; in [12] (2 μM), 36.36; in test [13] (0.1 μM) it was 20.22; in [13] (1 μM), 20.14; in test [13] (5 μM), 25.07. For the same compound, the S in [12] (0.1 μM) was found to be 20.60; in test [12] (1 μM), 21.31; in [12] (2 μM), 32.11; in test [13] (0.1 μM), 19.87; in test [13] (1 μM), 21.98; in test [13] (5 μM) it was 28.14. For the same compound, the cell cycle arrest entry in test [12] and in test [13] was “cell cycle arrest in the S phase” throughout.
Take `O=C1C(NCc2ccccc2)=CC2=NCCc3c[nH]c1c32` [Compound 4c]: the GI50 in test [4] turned out to be 2140 nM; in [5], 523 nM; in [6], 2080 nM; in test [7], 488 nM; in test [8], 1750 nM; in [9] it was 325 nM. For the same compound, the GI50 was determined as 793 nM in test [10] and 2830 nM in test [11]. The “expression of p53” value in test [1] is “increased the expression”. Also, the “expression of p21” value in test [2] is listed as “decreased the expression”. Also, the “expression of MDM2” value in test [3] is given as “inhibited the expression”. Further, the G1 in test [12] (0.1 μM) is given as 55.27; in test [12] (1 μM) it was 51.18; in test [12] (2 μM) it was 30.46; in test [13] (0.1 μM), 60.23; in [13] (1 μM), 58.62; in [13] (5 μM), 47.18. Further, the G2/M in test [12] (0.1 μM) is 26.89; in test [12] (1 μM), 29.35; in [12] (2 μM), 49.58; in test [13] (0.1 μM) it was 19.41; in test [13] (1 μM), 19.85; in test [13] (5 μM), 30.35. In addition, the S was 17.84 in test [12] (0.1 μM); 19.47 in test [12] (1 μM); 19.96 in test [12] (2 μM); 20.37 in test [13] (0.1 μM); 21.53 in [13] (1 μM); 22.48 in [13] (5 μM). The cell cycle arrest entry in test [12] and in test [13] was “cell cycle arrest in the G2/M phase” in each case.
